Laboratory results published in US20250230149A1, “MGLUR5 MODULATING COMPOUNDS, COMPOSITIONS, AND METHODS OF USE” (Allyx Therapeutics, Inc., priority 2022, published 2025).
In brackets after ≈: the same amount, converted by molar mass. Entries after “also recorded” stand apart in the source; their conditions may differ.

Experiments:
[1] = Approximate solubility (visual) in solvents; format: physicochemical; settings: thermodynamic from solid, read-out: Approx. solubility
Method: The polymorph study protocol involved the use of a selection of solvents in which the solubility of Compound 1 was initially evaluated. Four typologies of experiments were then set up: temperature cycling, evaporative, long-term slurries and vapor diffusion. The number of solvents, solvent volumes and amount of material to be used in each experiment was based on solubility values and the kind of experiment.
Approximate solubility (visual) of Compound 1 was assessed in a list of solvents selected based on class diversity including solvent/water mixtures (Table 5). Compound 1 (5.0±0.2 mg) was weighted in vials and known aliquots of solvent were progressively added at 20° C. until a clear solution was visually observed; magnetic stirring was applied. The final solutions were stirred at room temperature overnight to evaluate any re-crystallization phenomena.

[2] = Solubility in EtOAc/heptane mixtures by HPLC; format: physicochemical; settings: organic solvent or mixture, thermodynamic from solid
Method: Solubility data were generated applying the following protocol: slurries of Compound 1 were prepared and allowed to equilibrate at 20° C. under stirring for about 18 hours. To determine the concentration in supernatant, about 0.1 mL of slurry was sampled with syringe, filtered, weighed, diluted with MeCN, and injected into an HPLC. […] Samples were cooled to 20° C., and solid residues were isolated by filtration on 20-μm PTFE filter, dried under vacuum at 40° C., and submitted to XRPD analysis. Compound 1 peak area for each sample was recorded, and solubility data were calculated using previously determined response factor (245 nm, 1460 mAU*sec/mg/mL, Table 7). The data were combined and visualized on chart with the solubility as function of the percentage of heptane by volume. […] Solubility smoothly decreases with the increase in heptane amount.

[3] = Intravenous and oral cross-over pharmacokinetic study; format: in vivo, male Sprague Dawley rats; settings: male rats, IV 1 mg/kg
Method: This study assessed the PK of Compound 1 AH Form A in male Sprague Dawley rats (3/group) following single IV (intravenous) administration at 1 mg/kg as a solution in 2.5% N-Methyl-2-pyrrolidone (NMP)+1% Solutol HS15 in water or a PO (oral) administration of 3 formulations at 5 and 50 mg/kg, administered to the same animals in a cross over with 7 days recovery.
Serial plasma samples were collected at intervals to 24 h post dose and the level of Compound 1 determined in each plasma sample by LC-MS/MS.

CYP2C19 = CYP2C19 (Homo sapiens, UniProt P33261); test: CYP450 reaction phenotyping in Supersomes, CYP2C19; format: in vitro ADME
CYP2C19, sequence (P33261 whole entry): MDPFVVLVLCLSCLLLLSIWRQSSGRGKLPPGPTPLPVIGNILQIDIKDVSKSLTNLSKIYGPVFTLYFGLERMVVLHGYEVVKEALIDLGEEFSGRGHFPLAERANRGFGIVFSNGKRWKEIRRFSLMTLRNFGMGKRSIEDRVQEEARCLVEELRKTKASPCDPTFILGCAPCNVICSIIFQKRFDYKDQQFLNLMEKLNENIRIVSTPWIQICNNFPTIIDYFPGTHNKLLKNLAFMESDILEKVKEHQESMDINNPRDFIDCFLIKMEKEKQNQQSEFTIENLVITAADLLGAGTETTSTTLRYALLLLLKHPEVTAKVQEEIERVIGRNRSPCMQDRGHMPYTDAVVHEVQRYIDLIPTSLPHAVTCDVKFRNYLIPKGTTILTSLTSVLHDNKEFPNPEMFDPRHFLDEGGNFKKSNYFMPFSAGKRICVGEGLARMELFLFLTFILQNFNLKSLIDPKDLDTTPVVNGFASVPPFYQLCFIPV
Method: In Vitro CYP450 Reaction Phenotyping Study in Supersomes™ Over-Expressing Human CYP Enzymes
The CYPP450 enzymes involved in the Phase I metabolism of Compound 1 Form A were investigated in vitro. Compound 1 Form A was metabolized by CYP1A2, CYP2D6 and CYP3A4 and with T1/2 values of 64, 14, and 176 min, respectively, and CLint of 0.261, 0.984 and 0.0786 μL/min/pmol CYP, respectively. No evidence of Compound 1 metabolism by CYP2B6, CYP2C8, CYP2C9 and CYP2C19 was observed.

[4] = target: aryl hydrocarbon receptor (AhR) (Rattus norvegicus, UniProt P41738); test: AhR receptor activation, rat; format: in vitro ADME; settings: at 30 μM
aryl hydrocarbon receptor (AhR), sequence (P41738 10-853): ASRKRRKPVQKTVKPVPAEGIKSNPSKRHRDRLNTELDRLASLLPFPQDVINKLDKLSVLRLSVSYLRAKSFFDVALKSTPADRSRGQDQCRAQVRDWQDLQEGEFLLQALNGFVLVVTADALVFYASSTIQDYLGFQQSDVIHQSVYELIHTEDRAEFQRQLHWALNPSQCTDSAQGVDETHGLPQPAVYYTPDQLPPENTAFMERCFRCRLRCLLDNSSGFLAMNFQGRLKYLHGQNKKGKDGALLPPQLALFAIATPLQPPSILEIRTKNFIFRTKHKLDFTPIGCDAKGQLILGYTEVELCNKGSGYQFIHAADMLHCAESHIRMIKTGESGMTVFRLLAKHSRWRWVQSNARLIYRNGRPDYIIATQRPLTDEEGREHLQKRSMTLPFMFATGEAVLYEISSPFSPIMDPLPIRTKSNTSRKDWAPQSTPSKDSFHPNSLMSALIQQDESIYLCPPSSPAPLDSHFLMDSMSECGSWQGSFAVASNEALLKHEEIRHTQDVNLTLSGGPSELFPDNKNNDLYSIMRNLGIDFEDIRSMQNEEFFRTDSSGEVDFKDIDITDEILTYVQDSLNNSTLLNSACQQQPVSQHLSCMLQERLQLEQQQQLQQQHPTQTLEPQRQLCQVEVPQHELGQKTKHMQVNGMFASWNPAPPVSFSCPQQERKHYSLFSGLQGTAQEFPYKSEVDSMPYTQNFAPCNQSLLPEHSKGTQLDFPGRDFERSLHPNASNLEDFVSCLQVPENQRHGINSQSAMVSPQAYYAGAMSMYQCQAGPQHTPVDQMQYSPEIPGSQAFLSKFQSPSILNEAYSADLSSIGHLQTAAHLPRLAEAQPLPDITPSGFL
Source text: The objective of this study was to determine the human and rat pregnane X receptor (PXR) and human and rat aryl hydrocarbon receptor (AhR) receptor activation potential of Compound 1 Form A. The activation of PXR is a marker for induction of CYP3A4/5 and […] and the activation of AhR is a marker for induction of CYP1A.

APP/PS1 mice = test: Immunohistochemical staining of SV2A and PSD-95 in APP/PS1 mouse model with washout; format: in vivo
Method: The objective of this study was to assess synaptic density of control and APP/PS1 mice before and after treatment with Compound 1, and to assess the reversibility of any observed effects following a drug washout period.
Vehicle (95% polyethylene glycol (PEG) 400/5% solutol) or Compound 1 at 7.5 mg/kg/day (3.75 mg/kg q12) was given to control and APP/PS1 mice for at least 28 days by oral administration. A subset of mice stopped treatment after four weeks, then underwent a four-week washout period.
Reduced synaptic density in APP/PS1 samples relative to controls was confirmed by immunohistochemical staining of pre- and post-synaptic markers (SV2A and PSD-95) in hippocampal and cortical sections.

neurons and glia = test: Single nuclei transcriptomics; format: in vivo, mice; settings: neurons vs glia
Source text: Compound 1 (e.g., Form A) prevented Alzheimer's triggered aberrant synaptic signaling while preserving physiological Glu activation. Studies have been conducted to show oral Compound 1 effectively occupied brain mGluR5 sites visualized by [^18F]FPEB PET at doses 250-fold below adverse effect levels in rodent and non-human primate. […] Production of the microglial mediator, C1q, was not altered by Compound 1, but Alzheimer-gene-dependent C1q localization to synapses and synaptic engulfment were prevented. Thus, selective modulation of mGluR5 reversed neuronal gene expression changes to protect synapses from damage by microglial mediators.

SMILES: O=C1N[C@H](c2cncc(C#Cc3ccccc3)c2)[C@@H](c2ccccc2Cl)O1 [Compound 1, (4R,5R)-5-(2-chlorophenyl)-4-(5-(phenylethynyl)pyridin-3-yl)oxazolidin-2-one]
- solubility ([1]; aqueous with cosolvent or surfactant or cyclodextrin, 2-propanol/water 50:50, 20° C.): ~5 mg/mL (≈ 13.3 mM)
- solubility ([1]; aqueous with cosolvent or surfactant or cyclodextrin, acetone/water 50:50, 20° C.): ~5 mg/mL (≈ 13.3 mM)
- solubility ([1]; organic solvent or mixture, 2-butanol, 20° C.): 50 to 100 mg/mL (≈ 133 to 267 mM)
- solubility ([1]; organic solvent or mixture, 2-methyltetrahydrofuran (MeTHF), 20° C.): > 100 mg/mL
- solubility ([1]; organic solvent or mixture, 2-propanol/water 80:20, 20° C.): 50 to 100 mg/mL (≈ 133 to 267 mM)
- solubility ([1]; organic solvent or mixture, 2-propanol/water 90:10, 20° C.): 30 to 50 mg/mL (≈ 80 to 133 mM)
- solubility ([1]; organic solvent or mixture, acetone, 20° C.): > 100 mg/mL
- solubility ([1]; organic solvent or mixture, acetone/water 90:10, 20° C.): > 100 mg/mL
- solubility ([1]; organic solvent or mixture, acetonitrile, 20° C.): 50 to 100 mg/mL (≈ 133 to 267 mM)
- solubility ([1]; organic solvent or mixture, benzonitrile, 20° C.): > 100 mg/mL
- solubility ([1]; organic solvent or mixture, dichloromethane, 20° C.): > 100 mg/mL
- solubility ([1]; organic solvent or mixture, ethanol, 20° C.): > 100 mg/mL
- solubility ([1]; organic solvent or mixture, ethyl acetate, 20° C.): > 100 mg/mL
- solubility ([1]; organic solvent or mixture, heptane, 20° C.): < 2 mg/mL
- solubility ([1]; organic solvent or mixture, i-propyl acetate, 20° C.): 50 to 100 mg/mL (≈ 133 to 267 mM)
- solubility ([1]; organic solvent or mixture, isopropyl alcohol (IPA), 20° C.): 25 to 30 mg/mL (≈ 66.7 to 80 mM)
- solubility ([1]; organic solvent or mixture, methyl ethyl ketone (MEK), 20° C.): > 100 mg/mL
- solubility ([1]; organic solvent or mixture, methyl isobutyl ketone (MIK), 20° C.): > 100 mg/mL
- solubility ([1]; organic solvent or mixture, methyl tert-butyl ether (MTBE), 20° C.): 17 to 25 mg/mL (≈ 45.4 to 66.7 mM)
- solubility ([1]; organic solvent or mixture, t-Butyl acetate, 20° C.): 25 to 30 mg/mL (≈ 66.7 to 80 mM)
- solubility ([1]; organic solvent or mixture, tetrahydrofuran (THF), 20° C.): > 100 mg/mL
- solubility ([1]; organic solvent or mixture, toluene, 20° C.): 25 to 30 mg/mL (≈ 66.7 to 80 mM)
- solubility ([1]; water, 20° C.): < 2 mg/mL
- solubility ([2]; EtOAc/heptane 20:80 (% v/v), 20° C.): 2 mg/mL (≈ 5.34 mM)
- solubility ([2]; EtOAc/heptane 20:80 (% v/v), 45° C.): 3 mg/mL (≈ 8 mM)
- solubility ([2]; EtOAc/heptane 32:68 (% v/v), 20° C.): 6 mg/mL (≈ 16 mM)
- solubility ([2]; EtOAc/heptane 32:68 (% v/v), 45° C.): 10 mg/mL (≈ 26.7 mM)
- solubility ([2]; EtOAc/heptane 40:60 (% v/v), 20° C.): 11 mg/mL (≈ 29.3 mM)
- solubility ([2]; EtOAc/heptane 40:60 (% v/v), 45° C.): 17 mg/mL (≈ 45.4 mM)
- solubility ([2]; EtOAc/heptane 50:50 (% v/v), 20° C.): 20 mg/mL (≈ 53.4 mM)
- solubility ([2]; EtOAc/heptane 50:50 (% v/v), 45° C.): 34 mg/mL (≈ 90.7 mM)
- solubility ([2]; EtOAc/heptane 60:40 (% v/v), 20° C.): 33 mg/mL (≈ 88 mM)
- solubility ([2]; EtOAc/heptane 60:40 (% v/v), 45° C.): 61 mg/mL (≈ 163 mM)
- solubility ([2]; EtOAc/heptane 70:30 (% v/v), 20° C.): 49 mg/mL (≈ 131 mM)
- solubility ([2]; EtOAc/heptane 70:30 (% v/v), 45° C.): 85 mg/mL (≈ 227 mM)
- solubility ([2]; EtOAc/heptane 80:20 (% v/v), 20° C.): 69 mg/mL (≈ 184 mM)
- solubility ([2]; EtOAc/heptane 80:20 (% v/v), 45° C.): 124 mg/mL (≈ 331 mM)
- solubility ([2]; EtOAc/heptane 90:10 (% v/v), 20° C.): 95 mg/mL (≈ 253 mM)
- solubility ([2]; EtOAc/heptane 90:10 (% v/v), 45° C.): 177 mg/mL (≈ 472 mM)
- solubility ([2]; EtOAc/heptane 100:0 (% v/v), 20° C.): 115 mg/mL (≈ 307 mM)
- solubility ([2]; EtOAc/heptane 100:0 (% v/v), 45° C.): 187 mg/mL (≈ 499 mM)
- clearance ([3]; Sprague Dawley, rat, plasma): 0.359 L/h/kg
- half-life ([3]; Sprague Dawley, rat, plasma): 4.49 h
- Cmax ([3]; Sprague Dawley, rat, plasma, solution in 2.5% NMP + 1% Solutol HS15 in water): 0.595 µg/mL
- Vd ([3]; Sprague Dawley, rat, plasma, read-out: Vdss): 2.23 L/kg
- AUCinf (in AUClast column, footnote 1) [3]: 2910^1 ng · h/mL
- metabolism by CYP2C19 (CYP2C19): No evidence
- AhR activation, % of the positive control [4]: 0.946%
- mean maximum fold activation of AhR [4]: 1.42 fold
- SV2A and PSD-95 staining in hippocampal and cortical sections, relative to vehicle (APP/PS1 mice; 3.75 mg/kg q12 oral, at least 28 days): significant increases
- rescue of synaptic density after washout (APP/PS1 mice; one month washout period): persists after drug washout; also recorded: preserved
- normalization of expression patterns (neurons and glia): to a much greater extent in neurons than glia
